The test system of the experiment is Nucleic Acid. The experiment can be described thus: Intrinsic binding constant in calf thymus DNA. The experiment is classed as nucleic-acid assay, Bos taurus.

SMILES strings stand for the structures.

`CNC(=S)N(C)CCNc1c2ccccc2nc2ccccc12` gave a Kb of 1500000 M⁻¹.
To `CNc1c2ccccc2nc2ccccc12` belongs 110000 M⁻¹.

The values above are taken from ChEMBL document CHEMBL1136618, “Bis(acridinylthiourea)platinum(II) complexes: synthesis, DNA affinity, and biological activity in glioblastoma cells” (Bioorg Med Chem Lett, 2003).
